Values of other authors, collected in patent publication US12005094B2, “Inhibitor of inflammatory conditions” (Compton Developments Ltd., priority 2009, dated 2024).

Legend:
EAE = conditions: Clomipramine vs vehicle control, divergent from day 10
[1] = test system: antigen-induced arthritis; conditions: oral administration
ear edema = conditions: topical
[2] = test system: skin edema and hyperplasia; conditions: topical administration

Row | effect on lipoxygenase products (lipoxygenase products) | Structure (SMILES) | onset of disease symptoms (average EAE scores) (EAE) | reduction in paw swelling [1] [%] | PGE2 (ear edema) | ear edema (ear edema) | nitrite release (ear edema) | skin edema and hyperplasia [2]
1 | – | CN(C)CCCN1c2ccccc2CCc2ccc(Cl)cc21 [Clomipramine] | delayed | – | – | – | – | –
2 | no effect on lipoxygenase products | C=C(C)[C@@H]1CC[C@]2(C)CC[C@]3(C)[C@H](CC[C@@H]4[C@@]5(C)CC[C@H](O)C(C)(C)[C@@H]5CC[C@]43C)[C@@H]12 [Lupeol, lupeol] | – | 39 | significant reduction in PGE2 | suppressed ear edema | weaker inhibition of nitrite release | significantly inhibited skin edema and hyperplasia
